Data taken from ChEMBL document CHEMBL1201862, “PubChem BioAssay data set” (2004).
Activity calls are given as the source filed them.

Legend:
[1] = viability of uninfected HEp-2 cells – cell-based, HTS, cytotoxicity control for RSV inhibitor project, dose response (AID 2410); type: functional; conditions: human respiratory syncytial virus
[2] = target: T1, Protein skinhead-1 (Caenorhabditis elegans, UniProt P34707); type: functional
T1 sequence (P34707 whole entry): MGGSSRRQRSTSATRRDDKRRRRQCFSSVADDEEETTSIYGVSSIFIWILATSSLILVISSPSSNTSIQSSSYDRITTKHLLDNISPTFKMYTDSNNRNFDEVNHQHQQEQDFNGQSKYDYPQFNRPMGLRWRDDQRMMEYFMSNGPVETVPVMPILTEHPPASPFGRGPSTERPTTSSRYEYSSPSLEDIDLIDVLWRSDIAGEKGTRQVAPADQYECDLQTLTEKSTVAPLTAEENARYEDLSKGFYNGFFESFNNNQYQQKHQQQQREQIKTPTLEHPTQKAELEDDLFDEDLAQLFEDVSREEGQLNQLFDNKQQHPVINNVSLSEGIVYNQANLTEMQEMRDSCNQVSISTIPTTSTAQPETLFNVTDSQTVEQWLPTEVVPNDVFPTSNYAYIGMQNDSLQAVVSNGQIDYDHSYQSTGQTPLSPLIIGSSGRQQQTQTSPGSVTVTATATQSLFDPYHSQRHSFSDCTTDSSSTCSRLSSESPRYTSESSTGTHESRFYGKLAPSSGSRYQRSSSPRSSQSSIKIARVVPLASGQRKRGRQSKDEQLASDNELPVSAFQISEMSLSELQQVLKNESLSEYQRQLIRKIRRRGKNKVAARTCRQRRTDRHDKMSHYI

[3] = target: DNA dC->dU-editing enzyme APOBEC-3A (Homo sapiens, UniProt P31941); assay: Dose Response confirmation of small molecule APOBEC3A DNA Deaminase Inhibitors via a fluorescence-based single-stranded DNA deaminase assay. [Related pubchem assays (depositor defined):AID493011, AID493024]; type: functional
[4] = target: DNA dC->dU-editing enzyme APOBEC-3G (Homo sapiens, UniProt Q9HC16); type: functional;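 also: Dose-response counterscreen measuring inhibition of APOBEC3G DNA deaminase activity, run while confirming APOBEC3A inhibitors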
[5] = test system: Streptococcus sp. 'group A'; assay: Streptococcus pyogenes SK(-)GAS viability under kanamycin – luminescence, BacTiterGlo, confirmation, counter-screen for streptokinase expression inhibitor project, dose response (AID 1900); type: functional, organism-based
[6] = test system: Streptococcus; assay: GAS UMAA2166 growth inhibition – luminescence, BacTiterGlo, counter-screen for streptokinase expression inhibitor project, dose response (AID 1915); type: functional, organism-based;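 also: potency for reduction of bacterial viability or growth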
[7] = test system: H9c2; assay: cells; type: functional, cell-based; conditions: Rattus norvegicus, H9c2, Myocardium;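 also: confirmatory concentration-response retest of ultra-high-throughput screening hits for modulation of myocardial damage; cell death induced by hydrogen peroxide oxidative stress; compound pretreatment for 60 min then peroxide exposure for 2 h; potency is for protecting the cells against peroxide damage rather than for killing them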
[8] = test system: BJ; assay: BJ-TERT fibroblast viability loss – cell-based, RAS-independent, luminescence, dose response (AID 1933); type: functional; conditions: Homo sapiens
[9] = test system: BJ; assay: cells; type: functional, cell-based; conditions: Homo sapiens
[10] = test system: BJ; assay: BJ-TERT-LT-ST fibroblast viability loss – cell-based, RAS-independent, luminescence, dose response (AID 1935); type: functional; conditions: Homo sapiens;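 also: BJ fibroblasts immortalized with TERT plus LT and ST oncogenes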
[11] = DRD fibroblast viability loss – cell-based, non-viral oncogenic, luminescence, dose response (AID 1934); type: functional; conditions: Homo sapiens
[12] = target: T2, Streptokinase A (Streptococcus pyogenes serotype M1, UniProt P10520); assay: viability-normalized secreted streptokinase activity reduction – plasminogen activation absorbance, OD405, dose response (AID 1914); type: functional, Streptococcus pyogenes M1 GAS;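 also: secreted streptokinase activity via plasminogen activation per viability signal from cell pellet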
T2 sequence (P10520 whole entry): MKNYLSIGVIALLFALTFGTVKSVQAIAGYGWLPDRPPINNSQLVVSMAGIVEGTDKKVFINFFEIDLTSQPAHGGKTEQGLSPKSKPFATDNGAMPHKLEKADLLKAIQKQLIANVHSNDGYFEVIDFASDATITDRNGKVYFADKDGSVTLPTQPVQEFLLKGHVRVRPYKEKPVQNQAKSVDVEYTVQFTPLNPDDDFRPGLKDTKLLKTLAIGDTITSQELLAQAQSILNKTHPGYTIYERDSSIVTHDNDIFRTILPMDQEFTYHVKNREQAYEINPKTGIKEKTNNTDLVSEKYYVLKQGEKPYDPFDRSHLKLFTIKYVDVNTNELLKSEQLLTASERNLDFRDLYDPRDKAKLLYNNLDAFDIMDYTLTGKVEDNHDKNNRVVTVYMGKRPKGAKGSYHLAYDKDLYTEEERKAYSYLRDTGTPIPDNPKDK

[13] = target: T3, RNA-binding protein pos-1 (Caenorhabditis elegans, UniProt G5EF15); assay: disruptors of C. elegans POS-1 RNA interaction – biochemical, fluorescence polarization, dose response (AID 1964);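 also: purified POS-1 fused to maltose binding protein made in E. coli; potency of compounds blocking POS-1 binding to fluorescent RNA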
T3 sequence (G5EF15 whole entry): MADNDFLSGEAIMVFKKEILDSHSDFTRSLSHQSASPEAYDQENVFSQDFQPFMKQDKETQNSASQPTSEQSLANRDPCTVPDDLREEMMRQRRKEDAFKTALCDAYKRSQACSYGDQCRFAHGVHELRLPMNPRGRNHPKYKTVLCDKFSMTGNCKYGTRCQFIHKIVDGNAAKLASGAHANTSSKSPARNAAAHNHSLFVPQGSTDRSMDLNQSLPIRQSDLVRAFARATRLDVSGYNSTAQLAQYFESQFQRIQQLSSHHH

[14] = target: T4, Zinc finger protein mex-5 (Caenorhabditis elegans, UniProt Q9XUB2); assay: potency of MEX-5 RNA-binding blockers – biochemical, C. elegans, fluorescence polarization, dose response (AID 1960)
T4 sequence (Q9XUB2 whole entry): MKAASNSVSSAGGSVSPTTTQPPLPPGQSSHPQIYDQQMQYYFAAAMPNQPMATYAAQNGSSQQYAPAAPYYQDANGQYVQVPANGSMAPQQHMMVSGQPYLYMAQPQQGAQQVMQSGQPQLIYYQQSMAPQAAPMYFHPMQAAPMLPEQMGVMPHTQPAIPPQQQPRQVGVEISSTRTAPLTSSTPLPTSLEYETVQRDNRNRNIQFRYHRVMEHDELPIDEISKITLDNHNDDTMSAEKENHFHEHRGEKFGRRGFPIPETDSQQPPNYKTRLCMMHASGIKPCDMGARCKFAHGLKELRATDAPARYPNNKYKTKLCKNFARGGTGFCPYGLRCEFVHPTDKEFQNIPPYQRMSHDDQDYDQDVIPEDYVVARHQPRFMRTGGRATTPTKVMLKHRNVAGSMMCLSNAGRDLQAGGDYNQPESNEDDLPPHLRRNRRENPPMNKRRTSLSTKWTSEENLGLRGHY

[15] = target: T5, Corticotropin-releasing factor receptor 2/Corticotropin-releasing factor-binding protein (Homo sapiens, UniProt P24387+Q13324); assay: Dose Response confirmation of uHTS hits for small molecule antagonists of the CRF-binding protein and CRF-R2 receptor complex.; type: functional; conditions: read-out: IC50_Mean
T5 sequence (Q13324 whole entry): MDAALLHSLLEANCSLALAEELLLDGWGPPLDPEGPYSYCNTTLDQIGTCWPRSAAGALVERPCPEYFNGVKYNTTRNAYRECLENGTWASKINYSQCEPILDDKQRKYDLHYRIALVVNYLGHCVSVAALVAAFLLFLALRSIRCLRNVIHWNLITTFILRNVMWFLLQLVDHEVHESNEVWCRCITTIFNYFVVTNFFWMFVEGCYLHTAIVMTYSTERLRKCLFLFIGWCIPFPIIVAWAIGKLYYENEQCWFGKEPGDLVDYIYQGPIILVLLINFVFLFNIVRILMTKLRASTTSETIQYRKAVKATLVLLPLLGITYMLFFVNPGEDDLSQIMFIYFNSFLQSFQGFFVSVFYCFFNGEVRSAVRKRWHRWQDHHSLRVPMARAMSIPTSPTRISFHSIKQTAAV
T5 sequence (P24387 whole entry): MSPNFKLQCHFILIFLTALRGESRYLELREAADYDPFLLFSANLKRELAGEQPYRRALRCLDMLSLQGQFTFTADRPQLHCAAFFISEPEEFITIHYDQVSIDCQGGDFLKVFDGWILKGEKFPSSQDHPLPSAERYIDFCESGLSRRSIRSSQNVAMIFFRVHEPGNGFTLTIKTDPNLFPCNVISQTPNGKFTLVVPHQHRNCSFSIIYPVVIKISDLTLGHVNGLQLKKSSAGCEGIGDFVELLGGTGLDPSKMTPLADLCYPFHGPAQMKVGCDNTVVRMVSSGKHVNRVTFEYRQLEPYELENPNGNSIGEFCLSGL

[16] = target: T5, Corticotropin-releasing factor receptor 2/Corticotropin-releasing factor-binding protein; assay: activators of CRF receptor 2 with binding protein – uHTS hits, confirmation (AID 602473); type: functional; conditions: read-out: EC50_Mean
[17] = target: T6, Probable nicotinate-nucleotide adenylyltransferase (Staphylococcus aureus (strain N315), UniProt P65502); type: functional, Staphylococcus aureus subsp. aureus N315;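 as to IC50 Mean: confirmatory dose-response retesting of NadD inhibitor hits first found in an ultra-high-throughput screen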
[18] = target: T6, Probable nicotinate-nucleotide adenylyltransferase; type: functional, Staphylococcus aureus subsp. aureus N315; conditions: read-out: IC50_Mean
[19] = blockers of HIV-1 envelope-mediated cell-cell fusion – cherry-pick, dose response (AID 652057); type: functional, cell-based
[20] = HIV-1 AD8 envelope cell-cell fusion blockers – cherry-pick, dose response (AID 652062); type: functional, cell-based;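 also: luciferase signal from cell-cell fusion driven by HIV-1 clade B AD8 Env; potency is for inhibitors of fusion seen as a drop in luminescence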

T6 sequence (P65502 whole entry): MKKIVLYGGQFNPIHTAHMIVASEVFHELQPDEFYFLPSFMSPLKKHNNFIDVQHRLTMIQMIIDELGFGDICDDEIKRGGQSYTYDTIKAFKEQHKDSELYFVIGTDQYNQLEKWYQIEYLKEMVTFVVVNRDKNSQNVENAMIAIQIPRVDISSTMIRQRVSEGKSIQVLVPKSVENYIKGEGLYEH
DNA dC->dU-editing enzyme APOBEC-3G, sequence (Q9HC16 whole entry): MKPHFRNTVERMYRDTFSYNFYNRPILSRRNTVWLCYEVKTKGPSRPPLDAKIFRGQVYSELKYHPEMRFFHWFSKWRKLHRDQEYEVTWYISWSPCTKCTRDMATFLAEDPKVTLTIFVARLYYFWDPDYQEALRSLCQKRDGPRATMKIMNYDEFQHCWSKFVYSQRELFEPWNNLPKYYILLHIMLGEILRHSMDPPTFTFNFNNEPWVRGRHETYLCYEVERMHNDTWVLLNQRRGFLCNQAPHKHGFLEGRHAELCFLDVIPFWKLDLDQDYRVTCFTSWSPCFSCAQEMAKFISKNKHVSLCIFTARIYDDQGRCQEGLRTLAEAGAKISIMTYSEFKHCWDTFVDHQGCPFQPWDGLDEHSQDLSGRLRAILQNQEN
DNA dC->dU-editing enzyme APOBEC-3A, sequence (P31941 whole entry): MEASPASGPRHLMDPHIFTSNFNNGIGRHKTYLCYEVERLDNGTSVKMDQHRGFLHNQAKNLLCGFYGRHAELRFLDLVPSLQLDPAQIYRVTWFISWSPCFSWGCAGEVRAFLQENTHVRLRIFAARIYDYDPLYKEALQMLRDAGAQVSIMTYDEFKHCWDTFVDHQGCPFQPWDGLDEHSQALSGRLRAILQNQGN

In the case of `Cc1c(OC(=O)CNC(=O)OC(C)(C)C)ccc2c3c(c(=O)oc12)CCC3`, the CC50 [1] is reported as 36.9 µM (active) and the IC50 [2] is reported as > 100 µM (inactive).

For `CCc1n(CC(O)COCc2ccccc2)c2ccccc2[n+]1C` (stereo not drawn), the IC50 [3] was 2.36 µM (active) and the IC50 [4] was 3.14 µM (active).

In the case of `CC(C)c1ccc(N(CC(=O)Nc2ccc(S(=O)(=O)N3CCOCC3)cc2)S(C)(=O)=O)cc1`, the IC50 [2] is reported as > 100 µM (inactive).

With `CCOC(=O)c1ccc(NC(=O)c2[nH]cnc2C(=O)NCCCCCNC(=O)OC(C)(C)C)cc1` the EC50 [5] was 3.49 µM (active), the EC50 [6] was 5.74 µM (active) and the IC50 [7] was > 79 µM (inactive).

With `Cc1cc2ccccn2c1C(=O)c1ccc(Cl)c([N+](=O)[O-])c1` the EC50 [8] was > 150 µM (not active), the EC50 [9] was > 150 µM (not active) and the EC50 [10] was > 150 µM (inconclusive). For the same molecule, the EC50 [11] was > 150 µM (not active).

In the case of `COCCNC1=N[C@@H](c2ccc(Br)cc2)C(C(=O)OC)=C(C)N1Cc1ccccc1`, the IC50 [3] is reported as 12 µM (active) and the IC50 [4] is reported as 15.1 µM (active).

In the case of `Cc1cccc(C(=O)NC(C(=O)Nc2nc(-c3ccccn3)cs2)C(C)C)c1` (stereo not drawn), the EC50 [5] is reported as 6.29 µM (active), the EC50 [12] is reported as > 150 µM (not active) and the EC50 [6] is reported as 17.1 µM (active). The IC50 [7] was 8.6 µM (active).

For `Cc1cc(C=C2C(=O)NC(=O)NC2=O)c(C)n1-c1cccnc1`, the EC50 [13] was 64.3 µM (active) and the EC50 [14] was 36.7 µM (inconclusive).

With `NS(=O)(=O)c1cc(C(=O)OCC(=O)Nc2ccc3[nH]c(O)nc3c2)ccc1Cl` the IC50 [3] was 10.4 µM (active) and the IC50 [4] was 8.99 µM (active).

With `Clc1ccc(OCc2nc(-c3ccncc3)no2)c(Br)c1` the IC50 [2] was 31.6 µM (active).

In the case of `Cc1cccc(C(=O)N[C@H](C(=O)OCc2cc(=O)n3c(n2)sc2ccccc23)C(C)C)c1`, the EC50 [5] is reported as 26.2 µM (active), the EC50 [12] is reported as > 150 µM (not active) and the EC50 [6] is reported as 40.5 µM (active). For the same molecule, the IC50 [3] was 14.7 µM (active) and the IC50 [4] was 24.5 µM (active).

In the case of `O=C(CCc1nc(O)c2ccccc2n1)OCC(=O)N1CCc2ccccc21`, the IC50 [7] is reported as > 79 µM (inactive).

In the case of `CCOC(=O)c1ccc2c(c1)C1C=CCC1C(C(=O)OCC)N2` (stereo not drawn), the EC50 [13] is reported as > 300 µM (not active) and the EC50 [14] is reported as > 300 µM (not active).

For `Cc1ccccc1COc1ccc(C(=O)C2=C(O)C(=O)N(CCCn3ccnc3)C2c2ccco2)cc1` (stereo not drawn), the IC50 [15] was > 47.1 µM (inactive), the EC50 [16] was > 53 µM (inactive) and the IC50 [17] was 10.5 µM (active). The IC50 [18] was 80 µM (inactive).

For `CCCc1n(CC(O)COCc2ccccc2)c2ccccc2[n+]1C` (stereo not drawn), the IC50 [3] was 3.16 µM (active) and the IC50 [4] was 4.55 µM (active).

In the case of `CSc1nc(Cl)c(Br)c(N2CC2)n1`, the IC50 [7] is reported as > 79 µM (inactive).

For `CN(C(=O)CSCC(=O)Nc1ccc(Cl)cc1)C1CCCCC1`, the IC50 [2] was > 100 µM (inactive).

For `O=C1N[C@H](Cc2ccccc2)COC(=O)[C@@H](Cc2ccc(F)cc2)C/C=C\C[C@H]1CC(=O)N(CCO)Cc1ccccc1`, the IC50 [7] was > 79 µM (inactive).

In the case of `COc1ccc(/C=C2\SC(=O)N(CC(=O)Nc3ccccc3O)C2=O)cc1OC`, the IC50 [2] is reported as > 100 µM (inactive).

In the case of `C[C@H](CO)N1C[C@H](C)[C@H](CN(C)Cc2cccc(F)c2)OCc2ccccc2-c2ccccc2C1=O`, the AC50 [19] is reported as < 260 nM (active) and the AC50 [20] is reported as < 260 nM (active).

In the case of `C#CCn1/c(=N/C(=O)c2cc(-c3cccs3)nc3ccccc23)sc2cc(S(N)(=O)=O)ccc21`, the CC50 [1] is reported as > 50 µM (active), the IC50 [17] is reported as 12.8 µM (active) and the IC50 [18] is reported as 24.6 µM (active).

With `CCOCCCn1/c(=N/C(=O)c2ccc(OC)c(OC)c2)c(C#N)cc2c(=O)n3cccc(C)c3nc21` the EC50 [13] was 26.8 µM (active) and the EC50 [14] was 35.4 µM (active).
